# Assay results: ChEMBL document CHEMBL5241120, “Insights into the medicinal chemistry of heterocycles integrated with a pyrazolo[1,5-a]pyrimidine scaffold” (RSC Med Chem, 2022)
# Experiments:
# Enterococcus faecalis = assay: Antibacterial activity against Enterococcus faecalis assessed as zone of inhibition at 5 mg/ml; assay type: functional; conditions: read-out: IZ
# Proteus vulgaris = assay: Antibacterial activity against Proteus vulgaris assessed as zone of inhibition at 5 mg/ml; assay type: functional; conditions: read-out: IZ
# Streptococcus mutans = assay: Antibacterial activity against Streptococcus mutans assessed as zone of inhibition at 5 mg/ml; assay type: functional; conditions: read-out: IZ
# Staphylococcus aureus [1] = assay: Antibacterial activity against Staphylococcus aureus assessed as zone of inhibition at 5 mg/ml; assay type: functional; conditions: read-out: IZ
# Bacillus subtilis [2] = assay: Antibacterial activity against Bacillus subtilis assessed as zone of inhibition at 5 mg/ml; assay type: functional; conditions: read-out: IZ
# Escherichia coli [3] = assay: Antibacterial activity against Escherichia coli assessed as zone of inhibition at 5 mg/ml; assay type: functional; conditions: read-out: IZ
# Aspergillus fumigatus [4] = assay: Antifungal activity against Aspergillus fumigatus assessed as zone of inhibition at 5 mg/ml; assay type: functional; conditions: read-out: IZ
# Aspergillus flavus = assay: Antifungal activity against Aspergillus flavus assessed as zone of inhibition at 5 mg/ml; assay type: functional; conditions: read-out: IZ
# Candida albicans = assay: Antifungal activity against Candida albicans assessed as zone of inhibition at 5 mg/ml; assay type: functional; conditions: read-out: IZ
# HepG2 = assay: Cytotoxicity against human HepG2 cells by MTT assay; assay type: functional, cell-based
# MCF7 = assay: Cytotoxicity against human MCF7 cells by MTT assay; assay type: functional, cell-based
# HCT-116 = assay: Cytotoxicity against human HCT-116 cells by MTT assay; assay type: functional, cell-based
# Escherichia coli [5] = assay: Antibacterial activity against Escherichia coli assessed as zone of inhibition; assay type: functional
# Geotrichum candidum = assay: Antifungal activity against Geotrichum candidum assessed as zone of inhibition; assay type: functional
# [6] = tested on: Staphylococcus epidermidis; assay: Antibacterial activity against Staphylococcus epidermidis assessed as zone of inhibition; assay type: functional
# Klebsiella pneumoniae [7] = assay: Antibacterial activity against Klebsiella pneumoniae assessed as zone of inhibition; assay type: functional
# Salmonella typhimurium = assay: Antibacterial activity against Salmonella typhimurium assessed as zone of inhibition; assay type: functional, Salmonella enterica subsp. enterica serovar Typhimurium
# [8] = molecular target: Gamma-aminobutyric acid receptor subunit alpha-1 (Homo sapiens, UniProt P14867); assay: Binding affinity to GABAA alpha1 (unknown origin)
# Mus musculus [9] = assay: Anxiolytic activity in mouse assessed as time spent in light at 10 mg/kg, po; assay type: functional
# Mus musculus [10] = assay: Anxiolytic activity in mouse assessed as time spent in light at 1 mg/kg, po; assay type: functional
# Mus musculus [11] = assay: Anxiolytic activity in mouse assessed as time spent in light at 3 mg/kg, po; assay type: functional
# Mus musculus [12] = assay: Anxiolytic activity in mouse assessed as time spent in light at 30 mg/kg, po; assay type: functional
# Mus musculus [13] = assay: Anxiolytic activity in mouse assessed as transfer number at 10 mg/kg, po; assay type: functional
# Mus musculus [14] = assay: Anxiolytic activity in mouse assessed as transfer number at 1 mg/kg, po; assay type: functional
# Mus musculus [15] = assay: Anxiolytic activity in mouse assessed as transfer number at 3 mg/kg, po; assay type: functional
# Mus musculus [16] = assay: Anxiolytic activity in mouse assessed as transfer number at 30 mg/kg, po; assay type: functional
# Candida tropicalis = assay: Antifungal activity against Candida tropicalis assessed as zone of inhibition; assay type: functional
# Fusarium graminearum = assay: Antifungal activity against Gibberrella-zeave assessed as inhibition of fungal growth at 50 ug/ml; assay type: functional; set-up: scale not given: the % may be the effect or the level left; conditions: dose 50 µg/ml
# Alternaria solani = assay: Antifungal activity against Alternaria solani assessed as inhibition of fungal growth at 50 ug/ml; assay type: functional; set-up: scale not given: the % may be the effect or the level left; conditions: dose 50 µg/ml
# Phomopsis asparagi = assay: Antifungal activity against Phoma asparagi assessed as inhibition of fungal growth at 50 ug/ml; assay type: functional; set-up: scale not given: the % may be the effect or the level left; conditions: dose 50 µg/ml
# Mycosphaerella arachidis = assay: Antifungal activity against Cercospora arachidicola assessed as inhibition of fungal growth at 50 ug/ml; assay type: functional; set-up: scale not given: the % may be the effect or the level left; conditions: dose 50 µg/ml
# [17] = tested on: Brassica rapa subsp. oleifera; assay: Antifungal activity against Brassica campestris assessed as inhibition of fungal growth at 100 ug/ml by cup plate diffusion method; assay type: functional; set-up: scale not given: the % may be the effect or the level left; conditions: dose 100 µg/ml
# [18] = tested on: Brassica rapa subsp. oleifera; assay: Antifungal activity against Brassica campestris assessed as inhibition of fungal growth at 10 ug/ml by cup plate diffusion method; assay type: functional; set-up: scale not given: the % may be the effect or the level left; conditions: dose 10 µg/ml
# Mus musculus [19] = assay: Anxiolytic activity in mouse assessed as time spent in light at 100 mg/kg, po; assay type: functional
# Mus musculus [20] = assay: Anxiolytic activity in mouse assessed as transfer number at 100 mg/kg, po; assay type: functional
# [21] = tested on: Panel NCI-60 (60 carcinoma cell lines); assay: Cytotoxicity against human Panel NCI-60 (60 carcinoma cell lines); assay type: functional; set-up: concentration or dose not given beside the values
# [22] = Cytotoxicity against human WI-38 cells by MTT assay; assay type: toxicity, cell-based
# [23] = molecular target: Cyclin-dependent kinase 1 (Homo sapiens, UniProt P06493); assay: Inhibition of CDK1 (unknown origin)
# SiHa = assay: Cytotoxicity against human SiHa cells by MTT assay; assay type: functional, cell-based
# A549 = assay: Cytotoxicity against human A549 cells by MTT assay; assay type: functional, cell-based
# COLO 205 = assay: Cytotoxicity against human COLO 205 cells by MTT assay; assay type: functional, cell-based
# Bacillus subtilis [24] = assay: Antibacterial activity against Bacillus subtilis assessed as zone of inhibition; assay type: functional
# Aspergillus clavatus = assay: Antifungal activity against Aspergillus clavatus assessed as zone of inhibition; assay type: functional
# Klebsiella pneumoniae [25] = assay: Antibacterial activity against Klebsiella pneumoniae strain 13 assessed as bacterial inhibition at 0.5 mg/ml after 3 hrs; assay type: functional; set-up: scale not given: the % may be the effect or the level left
# Staphylococcus aureus [26] = assay: Antibacterial activity against Staphylococcus aureus assessed as zone of inhibition; assay type: functional
# Pseudomonas aeruginosa [27] = assay: Antibacterial activity against Pseudomonas aeruginosa assessed as zone of inhibition; assay type: functional
# Bacillus subtilis [28] = assay: Antibacterial activity against Bacillus subtilis; assay type: functional
# Staphylococcus aureus [29] = assay: Antibacterial activity against Staphylococcus aureus; assay type: functional
# Escherichia coli [30] = assay: Antibacterial activity against Escherichia coli; assay type: functional
# Pseudomonas aeruginosa [31] = assay: Antibacterial activity against Pseudomonas aeruginosa; assay type: functional
# Penicillium chrysogenum = assay: Antifungal activity against Penicillium chrysogenum; assay type: functional
# Fusarium oxysporum = assay: Antifungal activity against Fusarium oxysporum; assay type: functional
# Aspergillus fumigatus [32] = assay: Antifungal activity against Aspergillus fumigatus; assay type: functional
# Gamma-aminobutyric acid receptor subunit alpha-1, sequence (P14867 whole entry): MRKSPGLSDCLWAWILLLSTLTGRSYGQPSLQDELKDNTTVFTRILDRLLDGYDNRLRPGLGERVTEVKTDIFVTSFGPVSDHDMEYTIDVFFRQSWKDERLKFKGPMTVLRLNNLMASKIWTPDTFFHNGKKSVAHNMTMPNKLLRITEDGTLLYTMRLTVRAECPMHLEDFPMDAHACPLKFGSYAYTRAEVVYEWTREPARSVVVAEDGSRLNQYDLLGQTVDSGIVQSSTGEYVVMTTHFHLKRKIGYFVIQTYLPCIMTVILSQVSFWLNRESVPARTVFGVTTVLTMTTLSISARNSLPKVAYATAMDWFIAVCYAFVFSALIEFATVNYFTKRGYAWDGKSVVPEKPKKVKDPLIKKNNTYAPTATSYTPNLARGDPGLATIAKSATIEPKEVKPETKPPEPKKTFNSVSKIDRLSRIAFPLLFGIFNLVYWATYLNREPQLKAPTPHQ
# Cyclin-dependent kinase 1, sequence (P06493 whole entry): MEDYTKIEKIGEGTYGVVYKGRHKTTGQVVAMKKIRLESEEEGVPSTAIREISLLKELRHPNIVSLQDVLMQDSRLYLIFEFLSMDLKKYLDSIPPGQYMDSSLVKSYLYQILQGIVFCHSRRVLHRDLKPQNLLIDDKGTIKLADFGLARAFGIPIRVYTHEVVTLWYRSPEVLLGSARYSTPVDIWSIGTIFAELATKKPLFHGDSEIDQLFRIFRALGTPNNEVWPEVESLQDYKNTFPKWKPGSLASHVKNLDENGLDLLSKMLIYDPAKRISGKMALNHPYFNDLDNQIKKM
structure (smiles),measurement,setting,value
Cc1cc(C)nc(NS(=O)(=O)c2ccc(/N=N/c3c(N)nc4c(/N=N/c5ccc(C(F)(F)F)cc5)c(N)nn4c3N)cc2)n1,zone of inhibition at 5000 µg/mL,Enterococcus faecalis,25 mm
same,zone of inhibition at 5000 µg/mL,Proteus vulgaris,40 mm
same,zone of inhibition at 5000 µg/mL,Streptococcus mutans,13 mm
same,zone of inhibition at 5000 µg/mL,Staphylococcus aureus [1],13 mm
same,zone of inhibition at 5000 µg/mL,Bacillus subtilis [2],13 mm
same,zone of inhibition at 5000 µg/mL,Escherichia coli [3],13 mm
same,zone of inhibition at 5000 µg/mL,Aspergillus fumigatus [4],13 mm
same,zone of inhibition at 5000 µg/mL,Aspergillus flavus,13 mm
same,zone of inhibition at 5000 µg/mL,Candida albicans,13 mm
same,IC50,HepG2,3.9 µg/mL
same,IC50,MCF7,4.5 µg/mL
same,IC50,HCT-116,2.7 µg/mL
Nc1nn2c(-c3ccc(S(=O)(=O)c4ccccc4)cc3)ccnc2c1/N=N/c1ccccc1Cl,inhibition zone (IZ),Escherichia coli [5],25.7 mm
same,inhibition zone (IZ),Geotrichum candidum,25.2 mm
same,inhibition zone (IZ),[6],22.6 mm
same,inhibition zone (IZ),Klebsiella pneumoniae [7],26.6 mm
same,inhibition zone (IZ),Salmonella typhimurium,26.2 mm
O=c1c(Cc2ccccc2)c[nH]c2c(-c3ccccn3)cnn12,Ki,[8],183 nM
same,Activity,Mus musculus [9],165.4%
same,Activity,Mus musculus [10],113.9%
same,Activity,Mus musculus [11],145.2%
same,Activity,Mus musculus [12],164.4%
same,Activity,Mus musculus [13],23.9
same,Activity,Mus musculus [14],15
same,Activity,Mus musculus [15],21.3
same,Activity,Mus musculus [16],28.9
Cc1cc(NN2C(=O)c3ccccc3C2=O)n2ncc(C#N)c2n1,inhibition zone (IZ),Candida tropicalis,17.4 mm
Cc1ccn2ncc(C#N)c2n1,Activity,Fusarium graminearum,36.4%
same,Activity,Alternaria solani,45.1%
same,Activity,Phomopsis asparagi,28.7%
same,Activity,Mycosphaerella arachidis,39.6%
same,Activity,[17],65.8%
same,Activity,[18],40.3%
CCOC(=O)c1ncn2c1CN(C)C(=O)c1cc(F)ccc1-2 [FLUMAZENIL],Activity,Mus musculus [19],120.08%
same,Activity,Mus musculus [20],12.8
COc1ccc(Nc2nn3c(-c4ccccc4)cc(-c4ccccc4)nc3c2C(N)=O)c(OC)c1,IC50,HCT-116,6280 nM
same,Activity,[21],48.5%
same,IC50,[22],17700 nM
same,IC50,[23],161 nM
COc1ccc(-c2cc(-c3nn4cc(-c5ccncc5)cnc4c3S(=O)(=O)c3cc(OC)c(OC)c(OC)c3)on2)cc1,IC50,SiHa,180 nM
same,IC50,MCF7,10 nM
same,IC50,A549,10 nM
same,IC50,COLO 205,100 nM
Cc1nc2c(c(C)nc3c(C#N)cnn32)c2c1CCO2,inhibition zone (IZ),Escherichia coli [5],16.4 mm
same,inhibition zone (IZ),Bacillus subtilis [24],14.1 mm
same,inhibition zone (IZ),Aspergillus clavatus,17.7 mm
CCSc1nn2c3c(c(C)nc2c1C#N)Nc1ccccc1C(=O)N3C1CCCCC1,Activity,Klebsiella pneumoniae [25],100%
COc1ccc(Nc2nn3c(-c4ccccc4)cc(-c4ccccc4)nc3c2C(N)=O)cc1,inhibition zone (IZ),Staphylococcus aureus [26],9 mm
same,inhibition zone (IZ),Escherichia coli [5],13 mm
same,inhibition zone (IZ),Bacillus subtilis [24],12 mm
same,inhibition zone (IZ),Pseudomonas aeruginosa [27],10 mm
same,MIC,Bacillus subtilis [28],3.9 µg/mL
same,MIC,Staphylococcus aureus [29],7.81 µg/mL
same,MIC,Escherichia coli [30],3.9 µg/mL
same,MIC,Pseudomonas aeruginosa [31],15.6 µg/mL
same,MIC,Penicillium chrysogenum,15.6 µg/mL
same,MIC,Fusarium oxysporum,7.81 µg/mL
COc1ccc(Nc2nn3c(N)c(C#N)c(-c4ccccc4)nc3c2C(N)=O)cc1,MIC,Aspergillus fumigatus [32],15.6 µg/mL
